The test system of one experiment is MDA-MB-231 tumors. Put plainly: In vivo PET imaging in mice xenografted with MDA-MB-231 breast tumors. The following applies: NOG mice, MDA-MB-231 xenograft, intravenous, 30 min post tracer injection; FIG. 2. On the procedure:
All animal studies were carried out per regulations set forth and approved by the Johns Hopkins Animal Care and Use Committee at the Johns Hopkins Molecular Imaging Service Center. Female, 6-8 weeks old, immunodeficient (NOG) mice were inoculated with MDA-MB-231 (2 million) cells in 100 μL of Hank's balanced salt solution in the top mammary fat pad. Tumors averaging 200-300 mm^3 (typically 14 days after inoculation) were used for in vivo imaging and ex vivo biodistribution studies.
For PET imaging, mice were intravenously injected with 9-10 MBq (240-270 μCi) of the radiolabeled peptide in 200 μL of saline. Whole body PET imaging (2 beds; 15 min per bed) was carried out using a SEDCAL SuperArgus small animal PET/CT scanner 30 min post tracer injection. Following PET image acquisition, a CT scan (512 projections) was obtained on the same system for anatomical co-registration. PET data were reconstructed using the 3-dimensional ordered-subsets expectation maximization (3D-OSEM) algorithm and corrected for dead time and radioactive decay. Final data visualization and image generation was carried out using the Amira (FEI) software. Quantitative in vivo image analysis was done in AMIDE 1.0.5 (SourceForge) using ellipsoid region-of-interest volume integrations. Percentage of injected dose per cubic centimeter of tissue (% ID/cc) was calculated based on an external calibration factor obtained from a known quantity of radioactivity.

Experiment [1] concerns human triple negative breast cancer cell line, MDA-MB-231. In words: Cellular uptake of 18F-labeled peptide with blocking by unlabeled peptide. It is filed as cell-based. The following applies: MDA-MB-231 cells, 74 KBq 18F-labeled peptide, 37° C., blocking with 10-fold non-radioactive peptide; FIG. 1. On the procedure:
Prepared peptides were first analyzed in vitro using the human triple negative breast cancer cell line, MDA-MB-231. In brief, cells were detached using non-enzymatic buffer and 0.5 million cells per tube will be incubated with 74 KBq (2 μCi) of ^18F-labeled peptide in 100 μL phosphate-buffered saline (PBS) at 37° C. Experiments were done in triplicate and repeated three times to ensure reproducibility. Blocking was carried out using a 10-fold molar equivalence of the corresponding non-radioactive peptide analogue. The integrity of the radiolabeled compounds and their extent of decomposition was analyzed by RP-HPLC.

Entries after “also recorded” stand apart in the source; their conditions may differ. No end group written: not given here. *: point of attachment. NOTA = O=C(O)CN1CCN(CC(=O)O)CCN(CC(=O)*)CC1

Data on two substances can be found in patent publication US20240424152A1, “AGENTS, COMPOSITIONS, AND METHODS FOR CANCER DETECTION” (The Johns Hopkins University, priority 2021, published 2024).

Consider “A-D-K(NOTA)-P-D-M-G-E-I-A-S-F-D-K (ADK(NOTA)PDMGEIASFDK; also: 18F label) [Pep61, tested 18F-labeled]”, for which the “accumulation in breast tumors (PET)” value with MDA-MB-231 tumors is “clear accumulation in breast tumors; also recorded: Accumulation and visualization of both peptides in breast tumors”. For the same substance, the cellular uptake result in experiment [1] was “taken up by MDA-MB-231 cells in a specific manner”.
As for “A-D-K-P-D-M-G-E-I-A-S-F-D-K(NOTA) (ADKPDMGEIASFDK(NOTA); also: 18F label) [Pep62, tested 18F-labeled]”, in the experiment with MDA-MB-231 tumors, the “accumulation in breast tumors (PET)” value was “clear accumulation in breast tumors; also recorded: Accumulation and visualization of both peptides in breast tumors”; the “tumor uptake on PET compared to Pep61” value is “higher and more uniform uptake compared to Pep61”. For the same substance, the cellular uptake entry in experiment [1] is on record as “taken up by MDA-MB-231 cells in a specific manner”.
